Test results taken from the OligoGym collection.
HELM strings list units from the 5' end as sugar, base in round brackets, then linkage (d deoxyribose, r ribose, m 2'-O-methyl, p phosphodiester). Strings are as the collection lists them, not checked against the first reports. ss, as = sense and antisense strand

Settings: siRNA
Also: test system not given here.

Substance	target mRNA knockdown
RNA1{r(A)p.r(A)p.m(C)p.m(C)p.m(C)p.r(A)p.r(A)p.r(A)p.r(G)p.r(G)p.r(G)p.r(G)p.r(A)p.r(G)p.r(U)p.r(U)p.r(G)p.m(C)p.r(U)p.r(T)p.r(T)}|RNA2{m(A)p.r(G)p.m(C)p.r(A)p.m(A)p.r(C)p.m(U)p.r(C)p.m(C)p.r(C)p.m(C)p.r(U)p.m(U)p.r(U)p.m(G)p.r(G)p.m(G)p.r(U)p.m(U)p.r(T)p.r(T)}$$$RNA1{StrandType:ss}|RNA2{StrandType:as}$	37%
RNA1{r(A)p.r(A)p.m(C)p.r(A)p.r(G)p.r(C)p.r(C)p.r(U)p.m(U)p.r(A)p.r(C)p.r(C)p.r(C)p.r(C)p.r(G)p.r(A)p.r(U)p.r(U)p.r(C)p.r(T)p.r(T)}|RNA2{r(G)p.r(A)p.r(A)p.r(U)p.r(C)p.r(G)p.r(G)p.r(G)p.r(G)p.m(U)p.r(A)p.r(A)p.r(G)p.r(G)p.r(C)p.m(U)p.r(G)p.r(U)p.r(U)p.r(T)p.r(T)}$$$RNA1{StrandType:ss}|RNA2{StrandType:as}$	68%
RNA1{r(A)p.r(A)p.m(C)p.r(A)p.r(G)p.r(U)p.r(C)p.r(C)p.r(U)p.m(U)p.r(A)p.r(G)p.r(C)p.m(U)p.r(A)p.r(C)p.r(G)p.r(C)p.m(U)p.r(T)p.r(T)}|RNA2{r(A)p.r(G)p.r(C)p.r(G)p.m(U)p.r(A)p.r(G)p.r(C)p.m(U)p.r(A)p.r(A)p.r(G)p.r(G)p.r(A)p.r(C)p.m(U)p.r(G)p.r(U)p.r(U)p.r(T)p.r(T)}$$$RNA1{StrandType:ss}|RNA2{StrandType:as}$	85%
RNA1{r(A)p.r(A)p.m(C)p.r(U)p.m(C)p.r(U)p.r(A)p.m(C)p.r(U)p.r(G)p.r(U)p.r(G)p.r(G)p.r(A)p.r(G)p.r(U)p.m(C)p.r(G)p.r(G)p.r(T)p.r(T)}|RNA2{m(C)p.m(C)p.r(G)p.r(A)p.m(C)p.r(U)p.m(C)p.m(C)p.r(A)p.m(C)p.r(A)p.r(G)p.r(U)p.r(A)p.r(G)p.r(A)p.r(G)p.r(U)p.r(U)p.r(T)p.r(T)}$$$RNA1{StrandType:ss}|RNA2{StrandType:as}$	57%
RNA1{r(A)p.r(A)p.m(U)p.r(A)p.r(A)p.r(G)p.m(C)p.r(A)p.r(G)p.r(C)p.r(U)p.r(C)p.r(G)p.m(C)p.r(G)p.r(C)p.r(U)p.r(C)p.r(C)p.r(T)p.r(T)}|RNA2{r(G)p.r(G)p.r(A)p.r(G)p.r(C)p.r(G)p.r(C)p.r(G)p.r(A)p.r(G)p.r(C)p.m(U)p.r(G)p.r(C)p.r(U)p.m(U)p.r(A)p.r(U)p.r(U)p.r(T)p.r(T)}$$$RNA1{StrandType:ss}|RNA2{StrandType:as}$	51%
RNA1{r(A)p.r(A)p.m(U)p.r(A)p.r(A)p.r(G)p.m(C)p.r(A)p.r(G)p.r(C)p.r(U)p.r(C)p.r(G)p.r(C)p.r(G)p.r(C)p.r(U)p.r(C)p.r(C)p.r(T)p.r(T)}|RNA2{r(G)p.r(G)p.r(A)p.r(G)p.r(C)p.r(G)p.r(C)p.r(G)p.r(A)p.r(G)p.r(C)p.m(U)p.r(G)p.r(C)p.m(U)p.r(U)p.r(A)p.r(U)p.r(U)p.r(T)p.r(T)}$$$RNA1{StrandType:ss}|RNA2{StrandType:as}$	68%
RNA1{r(A)p.r(A)p.m(U)p.r(A)p.r(A)p.r(G)p.m(C)p.r(A)p.r(G)p.r(C)p.r(U)p.r(C)p.r(G)p.r(C)p.r(G)p.r(C)p.r(U)p.r(C)p.r(C)p.r(T)p.r(T)}|RNA2{r(G)p.r(G)p.r(A)p.r(G)p.r(C)p.r(G)p.r(C)p.r(G)p.r(A)p.r(G)p.r(C)p.r(U)p.r(G)p.r(C)p.r(U)p.m(U)p.r(A)p.r(U)p.r(U)p.r(T)p.r(T)}$$$RNA1{StrandType:ss}|RNA2{StrandType:as}$	54%
RNA1{r(A)p.r(A)p.m(U)p.r(A)p.r(A)p.r(G)p.r(C)p.r(A)p.r(G)p.r(C)p.r(U)p.r(C)p.r(G)p.r(C)p.r(G)p.r(C)p.r(U)p.r(C)p.r(C)p.r(T)p.r(T)}|RNA2{r(G)p.r(G)p.r(A)p.r(G)p.r(C)p.r(G)p.r(C)p.r(G)p.r(A)p.r(G)p.r(C)p.r(U)p.r(G)p.r(C)p.r(U)p.m(U)p.r(A)p.r(U)p.r(U)p.r(T)p.r(T)}$$$RNA1{StrandType:ss}|RNA2{StrandType:as}$	69%
